# Measured values from patent publication US20160160267A1, “COMPOSITION FOR EVALUATING OR PREDICTING PATIENTS THERAPEUTIC RESPONSE TO METHORMIN” (SNU R&DB FOUNDATION, priority 2013, published 2016).
# Legend:
# [1] = Metabolism-related index (body weight, fasting glucose, serum total cholesterol, HDL) in high-fat diet mouse; format: in vivo, mouse (C57BL/6); details: high-fat diet mice
# Protocol: (§1) Basically, body weight and fasting glucose were confirmed once a week. To confirm impaired glucose tolerance, oral glucose tolerance test (OGTT) was conducted. And, total cholesterol, high-density lipoprotein (HDL), low-density lipoprotein (LDL) were analyzed in serum, and insulin concentration in blood was measured using flow cytometry. To grasp the expression degree of metabolic and inflammatory factors, liver, epididymal adipose tissue, small intestine were homogenized to extract total RNA, which was quantitatively analyzed by polymerase chain reaction (PCR). In the liver, AMPKα1 (AMP-activated protein kinase alpha 1), PPARα (Peroxisome proliferator-activated eceptor alpha), GLUT2 (Glucose transporter 2), G6Pase (Glucose 6-phosphatase) were measured; in the adipose tissue, adiponectin, leptin, MCP-1 (Monocyte chemoattractant protein-1), TNFα (Tumor necrosis factor alpha) IL-6 (Interleukin-6) were measured; and in the small intestine, MUC2 and MUC5 (Mucin genes) were measured. For comparative analysis of the expression degree, relative quantification using housekeeping gene GAPDH was applied, and statistical significance was confirmed with Mann-Whitney U test. As the primer for MUC5AC, QuantiTect® Primer Assay (Cat. no.: QT01161104, Qiagen) was used.
# [2] = system: AMPKα1 (AMP-activated protein kinase alpha 1); test: Expression of AMPKα1 in liver, quantitative PCR relative to GAPDH; format: in vivo, mouse (C57BL/6); details: female, metformin during high-fat diet, P=0.023
# Protocol: (§2) FIG. 4a to FIG. 5b comparatively analyze the amount of gene expression of internal control GAPDH and biomarkers using relative quantification method (2^−ΔΔCt(ΔΔCt=(Ct.Target−Ct.GAPDH)Group1−(Ct.Target−Ct.GAPDH)Group2)). Statistical significance is assessed by Mann-Whitney U Test. For quantification, SYBR qPCR was repeatedly conduced three times.
# as §1, with “For comparative analysis of the expression degree, relative quantification using housekeeping gene GAPDH was applied, and statistical significance was confirmed with Mann-Whitney U test. As the primer for MUC5AC, QuantiTect® Primer Assay (Cat. no.: QT01161104, Qiagen) was used.” left out
# [3] = system: GLUT2 (Glucose transporter 2); test: Expression of GLUT2 in liver, quantitative PCR relative to GAPDH; format: in vivo, mouse (C57BL/6); details: female, metformin during high-fat diet, P=0.007
# Protocol: as §2
# as §1, with “For comparative analysis of the expression degree, relative quantification using housekeeping gene GAPDH was applied, and statistical significance was confirmed with Mann-Whitney U test. As the primer for MUC5AC, QuantiTect® Primer Assay (Cat. no.: QT01161104, Qiagen) was used.” left out
# PPARα = test: Expression of PPARα in liver, quantitative PCR relative to GAPDH; format: in vivo, mouse (C57BL/6); details: female, metformin during high-fat diet, P=0.008
# Protocol: as §2
# as §1, with “For comparative analysis of the expression degree, relative quantification using housekeeping gene GAPDH was applied, and statistical significance was confirmed with Mann-Whitney U test. As the primer for MUC5AC, QuantiTect® Primer Assay (Cat. no.: QT01161104, Qiagen) was used.” left out
# [4] = system: G6Pase (Glucose 6-phosphatase); test: Expression of G6Pase in liver, quantitative PCR relative to GAPDH; format: in vivo, mouse (C57BL/6); details: male, metformin during high-fat diet
# Protocol: as §2
# as §1, with “For comparative analysis of the expression degree, relative quantification using housekeeping gene GAPDH was applied, and statistical significance was confirmed with Mann-Whitney U test. As the primer for MUC5AC, QuantiTect® Primer Assay (Cat. no.: QT01161104, Qiagen) was used.” left out
# leptin = test: Expression of leptin in epididymal adipose tissue, quantitative PCR relative to GAPDH; format: in vivo, mouse (C57BL/6); details: male, metformin during high-fat diet, P=0.004
# Protocol: as §2
# as §1, with “For comparative analysis of the expression degree, relative quantification using housekeeping gene GAPDH was applied, and statistical significance was confirmed with Mann-Whitney U test. As the primer for MUC5AC, QuantiTect® Primer Assay (Cat. no.: QT01161104, Qiagen) was used.” left out
# [5] = system: MCP-1 (Monocyte chemoattractant protein-1); test: Expression of MCP-1 in epididymal adipose tissue, quantitative PCR relative to GAPDH; format: in vivo, mouse (C57BL/6); details: male, metformin during high-fat diet, P=0.008
# Protocol: as §2
# as §1, with “For comparative analysis of the expression degree, relative quantification using housekeeping gene GAPDH was applied, and statistical significance was confirmed with Mann-Whitney U test. As the primer for MUC5AC, QuantiTect® Primer Assay (Cat. no.: QT01161104, Qiagen) was used.” left out
# [6] = system: TNFα (Tumor necrosis factor alpha); test: Expression of TNFα in epididymal adipose tissue, quantitative PCR relative to GAPDH; format: in vivo, mouse (C57BL/6); details: female, metformin during high-fat diet, P=0.001
# Protocol: as §2
# as §1, with “For comparative analysis of the expression degree, relative quantification using housekeeping gene GAPDH was applied, and statistical significance was confirmed with Mann-Whitney U test. As the primer for MUC5AC, QuantiTect® Primer Assay (Cat. no.: QT01161104, Qiagen) was used.” left out
# MUC2 = test: Expression of mucin gene MUC2 in small intestine; format: in vivo, mouse (C57BL/6); details: female, after administration of metformin
# Protocol: as §2
# as §1, with “For comparative analysis of the expression degree, relative quantification using housekeeping gene GAPDH was applied, and statistical significance was confirmed with Mann-Whitney U test. As the primer for MUC5AC, QuantiTect® Primer Assay (Cat. no.: QT01161104, Qiagen) was used.” left out
# MUC5 = test: Expression of mucin gene MUC5 in small intestine; format: in vivo, mouse (C57BL/6); details: female, after administration of metformin
# Protocol: as §2
# as §1, with “For comparative analysis of the expression degree, relative quantification using housekeeping gene GAPDH was applied, and statistical significance was confirmed with Mann-Whitney U test. As the primer for MUC5AC, QuantiTect® Primer Assay (Cat. no.: QT01161104, Qiagen) was used.” left out
# [7] = system: rumen microorganism communities; test: Analysis of rumen microbiome in feces samples (16S rRNA V2-V3 pyrosequencing, UniFrac, PCoA, LEfSe); format: in vivo, mouse (C57BL/6)
# Protocol: Total genome DNA of bacteria in the feces sample was extracted using a kit. The V2 region and the V3 region of 16S rRNA gene were amplified through PCR using bar coded universal primer as described in Table 3 and Table 4, and pyrosequencing was conducted using GS-FLX system. For the secured nucleotide sequence, data was analyzed using QIIME (Quantitative Insights Into Microbial Ecology) 1.5.0 (http://qiime.sourceforge.net). Before the sequence analysis, noise removal of the sequence data set was conducted, and low quality sequence less than 200 bp was removed. To the nucleotide sequence, OUT (Operational taxonomic units) was assigned based on 97% analogous level to conduct system analysis. For the nucleotide sequence obtained from each feces sample, UniFrac, PCoA (Principal Coordinate Analysis), LEfSe (LDA Effect Size) analysis were conducted for comparative analysis. And, based on the KEGG (Kyoto Encyclopedia of Genes and Genomes) pathway data from microbiome, PICRUSt (Phylogenetic Investigation of Communities by Reconstruction of Unobserved States) was conducted to predict a specifically increasing metabolic pathway.
# [8] = Tissue inspection (tissue weights, H&E staining, steatosis); details: metformin during high-fat diet, compared to high-fat diet group
# Description: Male and female C57BL/6 species of the same age of the week were purchased from Orientbio. […] Epididymis adipose tissue, liver, small intestine, pancreas, and blood were extracted, and among them, liver, small intestine, and pancreas were fixed to 4% paraformaldehyde to conduct hematoxylin and eosin (H&E) staining. Briefly, tissue was cut to 4 μm, stained with alum haematoxylin and rinsed with water flow. Thereafter, the colour was changed with 0.3% acid alcohol, followed by additional staining with eosin, dehydrating and fixing. The degree of steatosis and inflammation of the tissue was read by pathologist.
# [9] = 10 weeks after metformin administration
# [10] = after administration of metformin (300 mg/kg daily, oral)
# [11] = after administration of metformin during high-fat diet
smiles,measurement,setting,value
"CN(C)C(=N)NC(=N)N [metformin, N,N-Dimethylimidodicarbonimidic diamide]",high density lipoprotein (HDL),[1]; [9],significantly decreased
same,total cholesterol,[1]; [9],significantly decreased
same,blood glucose (fasting glucose),[1]; [10],significantly decrease
same,body weight,[1]; [10],significantly decrease
same,AMPKα expression in liver,[2],decreased
same,GLUT2 expression in liver,[3],decreased
same,PPARα expression in liver,PPARα,increased
same,G6Pase expression in liver,[4],significantly decreased
same,leptin expression in epididymal adipose tissue,leptin,increased
same,MCP-1 expression in epididymal adipose tissue,[5],increased
same,TNFα expression in epididymal adipose tissue,[6],significantly decreased
same,expression degree of MUC2 in small intestine,MUC2,significantly increased
same,expression degree of MUC5 in small intestine,MUC5,significantly increased
same,proportion of phylum Proteobacteria,[7]; [11],2.1±2.8%
same,proportion of phylum Verrucomicrobia,[7]; [11],12.4±5.3%
same,proportion of phylum Bacteroidetes,"[7]; high-fat diet, after administration of metformin",77.5±8.7%
same,microbial diversity in feces,[7]; metformin administration during high-fat diet,decreased
same,microbial diversity in feces,[7]; metformin administration during normal diet,did not cause any change in diversity
same,"Akkermansia abundance, at species level",[7]; metformin during high-fat diet,significantly increased
same,"Bacteroides abundance, at species level",[7]; metformin during high-fat diet,significantly increased
same,"relative bacterial abundance by LDA scores, genus Akkermansia",[7]; metformin during high-fat diet,increased
same,"relative bacterial abundance by LDA scores, genus Blautia",[7]; metformin during high-fat diet,increased
same,"relative bacterial abundance by LDA scores, genus Clostridium",[7]; metformin during high-fat diet,decreased
same,"relative bacterial abundance by LDA scores, genus Shigella",[7]; metformin during high-fat diet,increased
same,UniFrac distance to the group treated with high-fat diet only,"[7]; metformin during high-fat diet, versus difference of the diet-change group (HFD-ND) to HFD only",larger
same,"relative bacterial abundance, Alistipes",[7]; metformin during normal diet,increased
same,"relative bacterial abundance, Lactobacillus iners",[7]; metformin during normal diet,relatively decreased
same,"relative bacterial abundance, genus Akkermansia",[7]; metformin during normal diet,significantly increased
same,"relative bacterial abundance, genus Clostridium",[7]; metformin during normal diet,significantly increased
same,liver steatosis,[8],significant difference
same,weight of adipose tissue,[8],significantly decreased
same,weight of liver,[8],significantly decreased
